Results: article PMC10845951, “Characterization of a selective, iron-chelating antifungal compound that disrupts fungal metabolism and synergizes with fluconazole” (Microbiology Spectrum, 2024)

System: C. glabrata gene expression
Assay: RNA sequencing (gene regulation)
Type: cell-based, Candida glabrata
Conditions: for Log2 Fold-Change: vs DMSO; for Regulation Status: 26CvsDMSO
Description: Cells from overnight precultures in YPD medium were reinoculated in fresh YNB −iron medium (see “Culture maintenance” for contents) without iron and grown until OD600 of 0.4. […] Cells were collected from three independent experiments, snap frozen, and stored at −80°C. Total RNA purification was performed as previously described using the RNeasy Mini Kit (74104, Qiagen), and gDNA removal was made using the RNase-Free DNase Set kit (79254, Qiagen). RNA quantification and quality control were done with a Tape Station 4150 (Agilent) ([59]).
Library preparation and sequencing were performed at GenomEast (IGBMC, Illkirch, France). One DMSO 0.05% sample was excluded from the analysis due to insufficient quality. The library was sequenced on Illumina Hiseq 4000 sequencer as single-read 50-base reads following Illumina’s instructions. Reads were pre-processed in order to remove adapter, polyA, and low-quality sequences (Phred quality score below 20). Reads shorter than 40 bases were discarded from further analysis. These pre-processing steps were performed using cutadapt version 1.10 ([60]). Image analysis and base calling were performed using RTA 2.7.7 and bcl2fastq2.17.1.14. Adapter dimer reads were removed using DimerRemover (https://sourceforge.net/projects/dimerremover/). The quality of the RNAseq reads was examined using FastQC 0.11.2 (http://www.bioinformatics.babraham.ac.uk/projects/fastqc/) and FastQScreen 0.5.1 (https://www.bioinformatics.babraham.ac.uk/projects/fastq_screen/). Reads were mapped onto the ASM254v2 assembly of Candida glabrata genome using STAR version 2.5.3a ([61]). Gene expression quantification was performed from uniquely aligned reads using htseq-count version 0.6.1p1 ([62]), with annotations from Ensembl fungi version 50 and union mode. Only non-ambiguously assigned reads have been retained for further analyses. Read counts were normalized across samples with the median-of-ratios method ([63]). Comparisons were implemented in the Bioconductor package DESeq2 version 1.16.1 using the test for differential expression ([64]). Genes with no P-value corresponded to genes with high Cook’s distance that were filtered out. P-values were adjusted for multiple testing using the Benjamini and Hochberg method ([65]). Genes with no adjusted P-value correspond to genes filtered out in the independent filtering step in order to remove reads from genes that have no or little chance of showing evidence of significant differential expression.

c1ccc(-c2cccc(-c3ccccn3)n2)nc1 [2,2′:6′,2′′-terpyridine]
0.6092: Log2 Fold-Change (ZPR1 CAGL0K00759g)
Downregulated: Regulation Status (gene CAGL0F07029g MET13) | Regulation Status (gene CAGL0F07513g) | Regulation Status (gene CAGL0F08481g) | Regulation Status (gene CAGL0F08503g) | Regulation Status (gene CAGL0F09163g) | Regulation Status (gene CAGL0G01903g MET1) | Regulation Status (gene CAGL0G02695g) | Regulation Status (gene CAGL0G03619g) | Regulation Status (gene CAGL0G03861g) | Regulation Status (gene CAGL0G03883g) | Regulation Status (gene CAGL0G03905g) | Regulation Status (gene CAGL0G06050g) | Regulation Status (gene CAGL0G06402g) | Regulation Status (gene CAGL0G06600g) | Regulation Status (gene CAGL0G06732g) | Regulation Status (gene CAGL0G07711g) | Regulation Status (gene CAGL0G08712g KGD1) | Regulation Status (gene CAGL0G09581g) | Regulation Status (gene CAGL0G10131g) | Regulation Status (gene CAGL0G10153g) | Regulation Status (gene CAGL0H02365g) | Regulation Status (gene CAGL0H02491g) | Regulation Status (gene CAGL0H02541g) | Regulation Status (gene CAGL0H03531g MNP1) | Regulation Status (gene CAGL0H03795g LEU2) | Regulation Status (gene CAGL0H03993g CIT1) | Regulation Status (gene CAGL0H05775g) | Regulation Status (gene CAGL0H05797g) | Regulation Status (gene CAGL0H06732g) | Regulation Status (gene CAGL0H06743g) | Regulation Status (gene CAGL0H07023g) | Regulation Status (gene CAGL0H08283g HSP10) | Regulation Status (gene CAGL0H09306g) | Regulation Status (gene CAGL0H09328g) | Regulation Status (gene CAGL0H10076g) | Regulation Status (gene CAGL0I00924g) | Regulation Status (gene CAGL0I01276g) | Regulation Status (gene CAGL0I01298g) | Regulation Status (gene CAGL0I01408g CYC1) | Regulation Status (gene CAGL0I01496g) | Regulation Status (gene CAGL0I01848g) | Regulation Status (gene CAGL0I02728g) | Regulation Status (gene CAGL0I03190g RIP1) | Regulation Status (gene CAGL0I04180g AMT1) | Regulation Status (gene CAGL0I04994g MET6) | Regulation Status (gene CAGL0I05280g) | Regulation Status (gene CAGL0I05698g) | Regulation Status (gene CAGL0I06270g) | Regulation Status (gene CAGL0I06644g) | Regulation Status (gene CAGL0I06831g) | Regulation Status (gene CAGL0I06985g) | Regulation Status (gene CAGL0I07969g) | Regulation Status (gene CAGL0I08305g) | Regulation Status (gene CAGL0I08503g) | Regulation Status (gene CAGL0I08767g) | Regulation Status (gene CAGL0I09009g) | Regulation Status (gene CAGL0I09262g) | Regulation Status (gene CAGL0I09812g) | Regulation Status (gene CAGL0I10923g) | Regulation Status (gene CAGL0J00429g COX6) | Regulation Status (gene CAGL0J00847g SDH1) | Regulation Status (gene CAGL0J01463g) | Regulation Status (gene CAGL0J01699g) | Regulation Status (gene CAGL0J02090g) | Regulation Status (gene CAGL0J03806g) | Regulation Status (gene CAGL0J04026g) | Regulation Status (gene CAGL0J04268g) | Regulation Status (gene CAGL0J04554g) | Regulation Status (gene CAGL0J04884g) | Regulation Status (gene CAGL0J05302g) | Regulation Status (gene CAGL0J06380g) | Regulation Status (gene CAGL0J06490g) | Regulation Status (gene CAGL0J06820g) | Regulation Status (gene CAGL0J08316g) | Regulation Status (gene CAGL0J09680g) | Regulation Status (gene CAGL0J09790g) | Regulation Status (gene CAGL0J11484g DUG3) | Regulation Status (gene CAGL0J11682g) | Regulation Status (gene CAGL0K00110g AWP2) | Regulation Status (gene CAGL0K02409g) | Regulation Status (gene CAGL0K02893g) | Regulation Status (gene CAGL0K03663g) | Regulation Status (gene CAGL0K04279g SCM4) | Regulation Status (gene CAGL0K06677g MET8) | Regulation Status (gene CAGL0K06853g) | Regulation Status (gene CAGL0K07315g) | Regulation Status (gene CAGL0K07678g) | Regulation Status (gene CAGL0K08184g CCP1) | Regulation Status (gene CAGL0K08668g MET28) | Regulation Status (gene CAGL0K08800g ADI1) | Regulation Status (gene CAGL0K09218g) | Regulation Status (gene CAGL0K10120g) | Regulation Status (gene CAGL0K10868g CTA1) | Regulation Status (gene CAGL0K10956g) | Regulation Status (gene CAGL0K10978g) | Regulation Status (gene CAGL0K12100g) | Regulation Status (gene CAGL0K12958g) | Regulation Status (gene CAGL0L00429g) | Regulation Status (gene CAGL0L00759g HIS1) | Regulation Status (gene CAGL0L00803g)
1.052: Log2 Fold-Change (TSA1 CAGL0K06259g)
